Values after ≈ are worked out from the molar mass of the structure shown. Read-outs that look alike come from different tables or passages of the source. Positions of bridges follow the written chain, without caps; N, C: chain ends. Non-standard residues stand in square brackets, D forms with d. Residues, ends and D or L forms follow the SMILES beside them. *: point of attachment. X1 = CC[C@H](C)CCCCC(=O)*; Dab = NCC[C@H](N)C(=O)O
Experiments:
[1] = test system: Staphylococcus aureus ATCC 33591; assay: Effect of CCCP on cell viability, CFU counting; conditions: S. aureus stationary-phase cultures, CCCP at concentrations up to 400 μg/mL, 3 h, 37°C, Figure 1
Experimental: (§2) Bacteria were grown in LB medium for approximately 18 h at 37°C to obtain stationary-phase cells, as assessed by monitoring bacterial growth by optical density. A volume of 1 mL of the overnight cultures was incubated with 10 μL of CCCP at different concentrations (from 25 to 400 μg/mL) for 3 h at 37°C with shaking. Bacterial cultures exposed to DMSO were used as cell viability control. Following the incubation, bacteria were washed twice in sodium-phosphate buffer (10 mM SPB, pH 7.4) by centrifugation (1700 × g for 10 min), subsequently diluted 10-fold in LB and plated on TSA to determine the number of CFU.

[2] = test system: Staphylococcus aureus ATCC 33591; assay: Flow cytometry, oxidoreductase activity with RedoxSensor Green; assay type: cell-based; conditions: S. aureus, 3-h exposure to CCCP 400 μg/mL, Figure 4B
Experimental: (§1) The metabolic activity of CCCP-induced PCs of P. aeruginosa and S. aureus was also evaluated by determining the oxidoreductase activity through flow cytometry. […] Then, bacterial suspensions were stained with the RedoxSensor^TM Green reagent (RSG) (BacLight^TM RedoxSensor^TM Green Vitality Kit, Thermo Fisher Scientific, Waltham, MA, United States) according to the manufacturer’s instructions. Briefly, 1 mL of the bacterial suspension was incubated with 1 μL (P. aeruginosa) or 0.1 μL (S. aureus) of 1 mM RSG for 10 min at 37°C in the dark. Stained samples were analyzed with a BD Accuri C6 flow cytometer (BD Biosciences, Mountain View, CA, United States) equipped with a 488 nm laser and a 533/30 nm optical filter. Data were collected and analyzed with BD Accuri C6 software (BD Biosciences), and results were plotted as cell counts versus fluorescence intensity.

[3] = test system: Pseudomonas aeruginosa ATCC 27853; assay: as above; assay type: cell-based; conditions: P. aeruginosa, 3-h exposure to CCCP 200 μg/mL, Figure 4A
Experimental: as §1

[4] = test system: Staphylococcus aureus ATCC 33591; assay: Isothermal microcalorimetry, bacterial heat production; conditions: S. aureus stationary-phase culture incubated with CCCP 400 μg/mL, recorded for 24 h, Figure 3
Experimental: The metabolic profile of CCCP-induced persisters of P. aeruginosa and S. aureus was evaluated by real-time monitoring of bacterial heat production through isothermal microcalorimetry. […] Ampoules were inserted into the calorimeter, placed in the thermal equilibration position for 15 min and then lowered into the measuring position. After 45 min of signal stabilization, measurements of the heat flow were initiated and recorded for 24 h. Data analysis was performed with the manufacturer software (TAM Assistant) and GraphPad Prism (GraphPad Software, La Jolla, CA, United States), and results were plotted as heat flow (in microwatts) or total heat (in joules) versus time.

[5] = test system: Staphylococcus aureus ATCC 33591; assay: Induction of persistence with CCCP, survival to antibiotic treatment; conditions: S. aureus
[6] = test system: Pseudomonas aeruginosa ATCC 27853; assay: Effect of CCCP on cell viability, CFU counting; conditions: P. aeruginosa stationary-phase cultures, CCCP at concentrations up to 200 μg/mL, 3 h, 37°C, Figure 1
Experimental: as §2

[7] = test system: Pseudomonas aeruginosa ATCC 27853; assay: Induction of persistence with CCCP, survival to antibiotic treatment; conditions: P. aeruginosa
[8] = test system: Pseudomonas aeruginosa ATCC 27853; assay: Revival assay of CCCP-induced persisters; assay type: cell-based; conditions: P. aeruginosa, CCCP 200 μg/mL 3 h, washed, fresh LB
[9] = test system: Pseudomonas aeruginosa ATCC 27853; assay: Isothermal microcalorimetry, bacterial heat production; assay type: cell-based; conditions: P. aeruginosa stationary-phase culture incubated with CCCP 200 μg/mL, recorded for 24 h, Figure 3
[10] = test system: Staphylococcus aureus ATCC 33591; assay type: cell-based; conditions: S. aureus, CCCP 400 μg/mL 3 h, washed, fresh LB
[11] = test system: Pseudomonas aeruginosa ATCC 27853; assay: MIC and MBC by standard microdilution after revival of CCCP-induced persisters
[12] = test system: Pseudomonas aeruginosa ATCC 27853
[13] = test system: Staphylococcus aureus ATCC 33591
[14] = test system: Staphylococcus aureus ATCC 33591; assay: MIC and MBC by standard microdilution after revival of CCCP-induced persisters
[15] = CCCP 400 μg/mL for 3 h, then gentamicin 10 μg/mL 3 h, Figure 2F
[16] = CCCP 200 μg/mL for 3 h, then meropenem 10 μg/mL 3 h, Figure 2C
[17] = ATCC27853, read-out: MBC, CCCP-pretreated
[18] = ATCC27853, read-out: MBC, CCCP-untreated
[19] = ATCC33591, 24 h, read-out: MIC, CCCP-untreated
[20] = ATCC33591, read-out: MBC, CCCP-pretreated
[21] = ATCC33591, read-out: MBC, CCCP-untreated
[22] = ATCC33591, read-out: MIC, CCCP-pretreated

In the case of `N#CC(C#N)=NNc1cccc(Cl)c1` [CCCP, Carbonyl cyanide m-chlorophenylhydrazone], the “effect on cell viability” value [1] was “only a minor effect on cell viability”, the “reduction in RSG fluorescence vs untreated control” value [2] was “approximately three” and the “reduction in RSG fluorescence vs untreated control” value [3] was “approximately three”. For the same molecule, the basal heat production [4] was less than 5 μWh, the “fold increase in survival to gentamicin” value [5, 15] was “approximately 500 times” and the “percentage of cells becoming persisters (surviving gentamicin) after CCCP pretreatment” value [5, 15] was 20%. For the same molecule, the “percentage of initial population surviving levofloxacin exposure after CCCP pretreatment” value ([5]; CCCP 400 μg/mL for 3 h, then levofloxacin 2.5 μg/mL 3 h, Figure 2D) was “approximately 60%”, the “effect on cell viability” value [6] was “did not exert a significant killing effect” and the “fold increase in the number of persister-like cells vs untreated control” value ([7]; CCCP 200 μg/mL for 3 h, then ciprofloxacin 5 μg/mL 3 h, Figure 2A) was 5000 fold. The “fold increase in the percentage of bacteria tolerant to meropenem” value [7, 16] was 200 fold, the “percentage of starting bacterial population tolerant to meropenem after CCCP pretreatment” value [7, 16] was 35% and the “lag phase before resuming replication at a normal rate, optical density” value ([8]; OD600, Figure 5B) was “approximately 1 h”. The “time lag in heat production after CCCP removal (time of maximum heat production)” value ([8]; microcalorimetry, Figure 5A) was 1.5 h, the basal heat production [9] was less than 5 μWh and the “lag phase before resuming replication at a normal rate, optical density” value ([10]; OD600, Figure 5D) was “approximately 1 h”. The “delay in heat production after CCCP removal (time of maximum heat production)” value ([10]; microcalorimetry, Figure 5C) was 1 h.
Molecule `O=C(O)c1cn(C2CC2)c2cc(N3CCNCC3)c(F)cc2c1=O` [Ciprofloxacin] has an MIC ([11]; ATCC27853, 24 h, read-out: MIC, CCCP-untreated) of 0.5 µg/mL (≈ 1.51 µM), an MBC [11, 17] of 1 µg/mL (≈ 3.02 µM) and an MBC [11, 18] of 1 µg/mL (≈ 3.02 µM). For the same molecule, the MIC ([11]; ATCC27853, read-out: MIC, CCCP-pretreated) was 0.5 µg/mL (≈ 1.51 µM) and the “percentage of stationary-phase culture surviving antibiotic exposure, no CCCP pretreatment” value ([7]; ciprofloxacin 5 μg/mL, 3 h, SPB/LB, Figure 2A) was “less than 0.01%”.
`CC[C@H](C)CCCCC(=O)N[C@@H](CCN)C(=O)N[C@H](C(=O)N[C@@H](CCN)C(=O)N[C@H]1CCNC(=O)[C@H]([C@@H](C)O)NC(=O)[C@H](CCN)NC(=O)[C@H](CCN)NC(=O)[C@H](CC(C)C)NC(=O)[C@@H](CC(C)C)NC(=O)[C@H](CCN)NC1=O)[C@@H](C)O` [Colistin, colistin] (X1-[Dab]T[Dab][Dab][Dab][dL]L[Dab][Dab]T; lactam 4-C (inferred); N-terminus assumed) was tested, and the “concentration eradicating persister-enriched cultures to the limit of detection (complete killing)” value [12] was 3.5 µM, the “MBC, P. aeruginosa CCCP-pretreated” value ([12]; ATCC 27853, 3 h) was 3.5 µM (≈ 4.09 µg/mL) and the “MBC, P. aeruginosa CCCP-untreated” value ([12]; ATCC 27853, 3 h) was 1.75 µM (≈ 2.05 µg/mL). For the same molecule, the “fold increase in MBC against CCCP-pretreated vs CCCP-untreated bacteria” value ([12]; P. aeruginosa) was 2 fold.
For `CCCCCCCCCC(=O)N[C@@H](Cc1c[nH]c2ccccc12)C(=O)N[C@H](CC(N)=O)C(=O)N[C@@H](CC(=O)O)C(=O)N[C@@H]1C(=O)NCC(=O)N[C@@H](CCCN)C(=O)N[C@@H](CC(=O)O)C(=O)N[C@H](C)C(=O)N[C@@H](CC(=O)O)C(=O)NCC(=O)N[C@H](CO)C(=O)N[C@@H]([C@H](C)CC(=O)O)C(=O)N[C@@H](CC(=O)c2ccccc2N)C(=O)O[C@@H]1C` [Daptomycin], the “MBC, S. aureus CCCP-pretreated” value ([13]; ATCC 33591, 3 h) was 112 µM (≈ 182 µg/mL), the “MBC, S. aureus CCCP-untreated” value ([13]; ATCC 33591, 3 h) was 7 µM (≈ 11.3 µg/mL) and the “fold higher concentration required to kill CCCP-induced persisters than untreated bacteria (MBC)” value ([13]; S. aureus) was 16 fold. The “bactericidal concentration against persisters relative to those of the tested AMPs” value ([13]; S. aureus CCCP-pretreated, Figure 6B) was 32 to 64 fold.
`CNC(C)C1CCC(N)C(OC2C(N)CC(N)C(OC3OCC(C)(O)C(NC)C3O)C2O)O1` (centres unmarked) [Gentamicin] was tested, and the MIC [14, 19] was 20 µg/mL (≈ 41.9 µM), the MBC [14, 20] was 40 µg/mL (≈ 83.8 µM) and the MBC [14, 21] was 40 µg/mL (≈ 83.8 µM). It also gave an MIC [14, 22] of 20 µg/mL (≈ 41.9 µM).
For `C[C@H]1COc2c(N3CCN(C)CC3)c(F)cc3c(=O)c(C(=O)O)cn1c23` [Levofloxacin, levofloxacin], the “percentage of initial inoculum tolerating antibiotic treatment, no CCCP pretreatment” value ([5]; levofloxacin 2.5 μg/mL, 3 h, SPB/LB, Figure 2D) was “approximately 0.5%”, the MIC [14, 19] was 0.5 µg/mL (≈ 1.38 µM) and the MBC [14, 20] was 0.5 µg/mL (≈ 1.38 µM). For the same molecule, the MBC [14, 21] was 0.5 µg/mL (≈ 1.38 µM) and the MIC [14, 22] was 0.5 µg/mL (≈ 1.38 µM).
In the case of `C[C@@H](O)[C@H]1C(=O)N2C(C(=O)O)=C(S[C@@H]3CN[C@H](C(=O)N(C)C)C3)[C@H](C)[C@H]12` [Meropenem, meropenem], the MBC [11, 17] was 10 µg/mL (≈ 26.1 µM) and the MBC [11, 18] was 10 µg/mL (≈ 26.1 µM).
[WKKIRVRLSA]2-K-8Aoc-NH2 [Den-SB056] was tested, and the “MBC, P. aeruginosa CCCP-pretreated” value ([12]; persister-enriched cultures (CCCP 200 μg/mL, 3 h), SPB/LB, 1 × 10^6 CFU/mL, 3 h, 37°C, CFU counting) was 1.75 µM, the “MBC, P. aeruginosa CCCP-untreated” value ([12]; stationary-phase cultures, CCCP-untreated, SPB/LB, 1 × 10^6 CFU/mL, 3 h, 37°C, CFU counting) was 0.87 µM and the “MBC, S. aureus CCCP-pretreated” value ([13]; persister-enriched cultures (CCCP 400 μg/mL, 3 h), SPB/LB (daptomycin: deionized water with 1% LB and 75 μg/mL CaCl2), 1 × 10^6 CFU/mL, 3 h, 37°C, CFU counting) was 1.75 µM. The “MBC, S. aureus CCCP-untreated” value ([13]; stationary-phase cultures, CCCP-untreated, SPB/LB (daptomycin: deionized water with 1% LB and 75 μg/mL CaCl2), 1 × 10^6 CFU/mL, 3 h, 37°C, CFU counting) was 1.75 µM.

Reference: paper PMC5632672, “Generation of Persister Cells of Pseudomonas aeruginosa and Staphylococcus aureus by Chemical Treatment and Evaluation of Their Susceptibility to Membrane-Targeting Agents” (Frontiers in Microbiology, 2017)
